Tests used:
Type in all cases: in vivo
[1] = tested on: sedge, umbrella (small-flower umbrella sedge, Cyperus difformis); test: Test B flooded paddy test; conditions: Cyperus difformis, 360 h, Flood, 250 g ai/ha; visually evaluated after 13 to 15 d; read-out: Plant response rating, Sedge, Umbrella (0 to 100 scale where 0 is no effect and 100 is complete control)
Procedure, shortened: (§1)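 Compound goes directly into floodwater once pots are flooded 3 cm above soil, targeting plants at two leaves; the water depth is then held for the test duration. Plants sit 13–15 d in a greenhouse and are rated visually, 100 denoting complete control.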

rice (Oryra sativa) = test: Test B flooded paddy test; conditions: Oryza sativa, 360 h, Flood, 250 g ai/ha; visually evaluated after 13 to 15 d; read-out: Plant response rating, Rice (0 to 100 scale where 0 is no effect and 100 is complete control)
Procedure, shortened: as §1

[2] = tested on: barnyardgrass (Echinochloa crus-galli); test: Test B flooded paddy test; conditions: Echinochloa crus-galli, 360 h, Flood, 250 g ai/ha; visually evaluated after 13 to 15 d; read-out: Plant response rating, Barnyardgrass (0 to 100 scale where 0 is no effect and 100 is complete control)
Procedure, shortened: as §1

[3] = tested on: ducksalad (Heteranthera limosa); test: Test B flooded paddy test; conditions: Heteranthera limosa, 360 h, Flood, 250 g ai/ha; visually evaluated after 13 to 15 d; read-out: Plant response rating, Ducksalad (0 to 100 scale where 0 is no effect and 100 is complete control)
Procedure, shortened: as §1

[4] = tested on: barnyardgrass (Echinochloa crus-galli); test: Test A postemergence; conditions: Echinochloa crus-galli, post-emergence, 240 h, Postemergence
Procedure, shortened: (§2)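 Ratings of 0 (no effect) to 100 (complete control) come from visual comparison with untreated controls roughly 10 d after treatment. Test chemicals, formulated in a non-phytotoxic solvent mixture with surfactant, were applied either as a preemergence directed soil spray on seeded soil or postemergence to one- to two-leaf plants 2 to 10 cm tall.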

[5] = tested on: blackgrass (Alopecurus myosuroides); test: Test A postemergence; conditions: Alopecurus myosuroides, post-emergence, 240 h, Postemergence, read-out: Blackgrass plant response rating (0 to 100 scale)
Procedure, shortened: as §2

[6] = tested on: ryegrass, Italian (Italian ryegrass, Lolium multiflorum); test: Test A postemergence; conditions: Lolium multiflorum, post-emergence, 240 h, Postemergence, read-out: Ryegrass, Italian plant response rating (0 to 100 scale)
Procedure, shortened: as §2

[7] = tested on: ragweed (common ragweed, Ambrosia elatior); test: Test A postemergence; conditions: Ambrosia artemisiifolia, post-emergence, 240 h, Postemergence, read-out: Ragweed plant response rating (0 to 100 scale)
Procedure, shortened: as §2

corn (Zea mays) = test: Test A postemergence; conditions: Zea mays, post-emergence, 240 h, Postemergence, read-out: Corn plant response rating (0 to 100 scale)
Procedure, shortened: as §2

Kochia (Kochia scoparia) [8] = test: Test A postemergence; conditions: Bassia scoparia, post-emergence, 240 h, Postemergence, read-out: Kochia plant response rating (0 to 100 scale)
Procedure, shortened: as §2

[9] = tested on: giant foxtail (Setaria faberii); test: Test A postemergence; conditions: Setaria faberi, post-emergence, 240 h, Postemergence, read-out: Foxtail, Giant plant response rating (0 to 100 scale)
Procedure, shortened: as §2

[10] = tested on: wheat (Triticum aestivum); test: Test A postemergence; conditions: Triticum aestivum, post-emergence, 240 h, Postemergence, read-out: Wheat plant response rating (0 to 100 scale)
Procedure, shortened: as §2

[11] = tested on: pigweed (Amaranthus retroflexus); test: Test A postemergence; conditions: Amaranthus retroflexus, post-emergence, 240 h, Postemergence, read-out: Pigweed plant response rating (0 to 100 scale)
Procedure, shortened: as §2

[12] = tested on: barnyardgrass (Echinochloa crus-galli); test: Test A preemergence; conditions: Echinochloa crus-galli, pre-emergence, 240 h, Preemergence
Procedure, shortened: as §2

[13] = tested on: ryegrass, Italian (Italian ryegrass, Lolium multiflorum); test: Test A preemergence; conditions: Lolium multiflorum, pre-emergence, 240 h, Preemergence
Procedure, shortened: as §2

[14] = tested on: ragweed (common ragweed, Ambrosia elatior); test: Test A preemergence; conditions: Ambrosia artemisiifolia, pre-emergence, 240 h, Preemergence
Procedure, shortened: as §2

Kochia (Kochia scoparia) [15] = test: Test A preemergence; conditions: Bassia scoparia, pre-emergence, 240 h, Preemergence
Procedure, shortened: as §2

[16] = tested on: giant foxtail (Setaria faberii); test: Test A preemergence; conditions: Setaria faberi, pre-emergence, 240 h, Preemergence
Procedure, shortened: as §2

[17] = tested on: pigweed (Amaranthus retroflexus); test: Test A preemergence; conditions: Amaranthus retroflexus, pre-emergence, 240 h, Preemergence
[18] = 125 g ai/ha, visual rating about 10 d after treatment
[19] = 31 g ai/ha, 0 is no effect, 100 is complete control

Structure (SMILES): CN1C[C@H](c2ccc3c(c2)OC(F)(F)O3)[C@@H](C(=O)Nc2cccnc2F)C1=O [Compound 1346]
- pest or weed control at 250 g/ha [1]: 0%
- pest or weed control at 250 g/ha (rice (Oryra sativa)): 0%
- pest or weed control at 250 g/ha [2]: 90%
- pest or weed control at 250 g/ha [3]: 90%
- pest or weed control at 125 g/ha ([4]; 125 g ai/ha, visual rating about 10 d after treatment, read-out: Barnyardgrass plant response rating (0 to 100 scale, 0 no effect, 100 complete control)): 80%
- pest or weed control at 31 g/ha ([4]; 31 g ai/ha, 0 is no effect, 100 is complete control, read-out: Barnyardgrass plant response rating (0 to 100 scale)): 60%
- pest or weed control at 125 g/ha [5, 18]: 20%
- pest or weed control at 31 g/ha [5, 19]: 30%
- pest or weed control at 125 g/ha [6, 18]: 20%
- pest or weed control at 31 g/ha [6, 19]: 0%
- pest or weed control at 125 g/ha [7, 18]: 0%
- pest or weed control at 31 g/ha [7, 19]: 0%
- plant injury at 125 g/ha (corn (Zea mays); [18]): 40%
- plant injury at 31 g/ha (corn (Zea mays); [19]): 0%
- pest or weed control at 125 g/ha (Kochia (Kochia scoparia) [8]; [18]): 30%
- pest or weed control at 31 g/ha (Kochia (Kochia scoparia) [8]; [19]): 0%
- pest or weed control at 125 g/ha [9, 18]: 90%
- pest or weed control at 31 g/ha [9, 19]: 60%
- plant injury at 125 g/ha [10, 18]: 60%
- plant injury at 31 g/ha [10, 19]: 30%
- pest or weed control at 125 g/ha [11, 18]: 20%
- pest or weed control at 31 g/ha [11, 19]: 0%
- pest or weed control at 31 g/ha ([12]; 31 g ai/ha, 0 to 100 scale where 0 is no effect and 100 is complete control, read-out: Barnyardgrass plant response rating): 40%
- pest or weed control at 125 g/ha ([12]; 125 g ai/ha, 0 to 100 scale (0 no effect, 100 complete control), read-out: Plant response rating, Barnyardgrass): 90%
- pest or weed control at 31 g/ha ([13]; 31 g ai/ha, 0 to 100 scale where 0 is no effect and 100 is complete control, read-out: Ryegrass, Italian plant response rating): 10%
- pest or weed control at 125 g/ha ([13]; 125 g ai/ha, 0 to 100 scale (0 no effect, 100 complete control), read-out: Plant response rating, Ryegrass, Italian): 30%
- pest or weed control at 31 g/ha ([14]; 31 g ai/ha, 0 to 100 scale where 0 is no effect and 100 is complete control, read-out: Ragweed plant response rating): 0%
- pest or weed control at 125 g/ha ([14]; 125 g ai/ha, 0 to 100 scale (0 no effect, 100 complete control), read-out: Plant response rating, Ragweed): 90%
- pest or weed control at 31 g/ha (Kochia (Kochia scoparia) [15]; 31 g ai/ha, 0 to 100 scale where 0 is no effect and 100 is complete control, read-out: Kochia plant response rating): 10%
- pest or weed control at 125 g/ha (Kochia (Kochia scoparia) [15]; 125 g ai/ha, 0 to 100 scale (0 no effect, 100 complete control), read-out: Plant response rating, Kochia): 80%
- pest or weed control at 31 g/ha ([16]; 31 g ai/ha, 0 to 100 scale where 0 is no effect and 100 is complete control, read-out: Foxtail, Giant plant response rating): 90%
- pest or weed control at 125 g/ha ([16]; 125 g ai/ha, 0 to 100 scale (0 no effect, 100 complete control), read-out: Plant response rating, Foxtail, Giant): 100%
- pest or weed control at 31 g/ha ([17]; 31 g ai/ha, 0 to 100 scale where 0 is no effect and 100 is complete control, read-out: Pigweed plant response rating): 80%
- pest or weed control at 125 g/ha ([17]; 125 g ai/ha, 0 to 100 scale (0 no effect, 100 complete control), read-out: Plant response rating, Pigweed): 90%

Source: patent US12077503B2, “Substituted cyclic amides and their use as herbicides” (FMC CORPORATION, priority 2015, dated 2024)
